#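 Five concentrations, 48 hours, 96-well plates. Here, GI50 denotes the concentration required for 50% inhibition of growth. TGI denotes the concentration required for complete inhibition of growth.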
# Key:
# Experiment in all cases: NCI anticancer screen, dose series, 48 h
# SK-OV-3 ovarian = tested on: SK-OV-3 ovarian
# PC-3 prostate = tested on: PC-3 prostate
# ACHN renal = tested on: ACHN renal
# OVCAR-8 ovarian = tested on: OVCAR-8 ovarian
# SF-295 CNS = tested on: SF-295 CNS
# NCI-H226 lung = tested on: NCI-H226 lung
# U251 CNS = tested on: U251 CNS
# SNB-75 CNS = tested on: SNB-75 CNS
# K-562 leukemia = tested on: K-562 leukemia
# COLO 205 colon = tested on: COLO 205 colon
Structure (SMILES),GI50 (SK-OV-3 ovarian) [µM],TGI (SK-OV-3 ovarian) [µM],GI50 (PC-3 prostate) [µM],TGI (PC-3 prostate) [µM],GI50 (ACHN renal) [µM],TGI (ACHN renal) [µM],GI50 (OVCAR-8 ovarian) [µM],TGI (OVCAR-8 ovarian) [µM],GI50 (SF-295 CNS) [µM],TGI (SF-295 CNS) [µM],GI50 (NCI-H226 lung) [µM],TGI (NCI-H226 lung) [µM],GI50 (U251 CNS) [µM],TGI (U251 CNS) [µM],GI50 (SNB-75 CNS) [µM],TGI (SNB-75 CNS) [µM],GI50 (K-562 leukemia) [µM],TGI (K-562 leukemia) [µM],GI50 (COLO 205 colon) [µM],TGI (COLO 205 colon) [µM]
C[C@@H](NC(=O)[C@@H](CC(=O)N1CCC(N2CCCCC2)CC1)N1C(=O)[C@@H](N2C(=O)OC[C@@H]2c2ccccc2)[C@H]1/C=C/c1cccc(Cl)c1)c1ccccc1,12.9,27.5,5.37,18.9,2.31,6.22,4.3,16.6,1.84,3.91,14.8,31.2,2.03,4.06,1.71,4.09,2.63,5.47,1.8,4.24
CCN(CC)CCCC(C)Nc1c2ccc(Cl)cc2nc2cc(OC)c(OC)cc12 (stereo not drawn),2.65,8.87,2.08,6.28,1.18,2.97,2.28,10.3,1.5,3.24,1.47,5.39,,,1.31,2.6,2.4,8.77,,
O=c1oc(-c2ccccc2)cc2cccc(O)c12,26.8,68.6,40.6,> 100,25.9,> 73.1,23.9,52.4,28.3,> 83.9,19.4,51,18,35.1,24.4,> 62.6,> 67.3,> 100,> 100,> 100
Cc1cc([N+](=O)[O-])ccc1NS(=O)(=O)c1cc(Cl)ccc1Cl,2.51,8.63,2.73,21.1,3.18,> 100,3.65,> 100,2.46,9.26,2.87,14.3,2.9,17.4,2.98,38.3,3.56,> 100,3.23,12.3
CC(=O)OCc1ccc(O)c(C=O)c1,,> 100,,> 100,,> 100,,> 100,,> 100,,> 100,,> 100,,> 100,,> 100,,> 100
COc1ccc(-c2cn(-c3cccc(C(=O)/C=C/c4ccc(O)c(OC)c4)c3)c(=O)[nH]2)cc1,4.32,48.6,2.91,14.2,2.55,6.22,3.58,> 49.6,11.2,> 85.4,5.25,> 59.5,2.86,15.3,4.75,> 80.2,4.71,> 37.7,4.79,15.3
N#Cc1ccc(C2C3=C(CCCC3=O)OC3=C2C(=O)c2ccccc2C3=O)cc1 (stereo not drawn),3.17,9.6,2.17,12.2,1.55,2.89,0.722,4.79,1.83,3.9,2.02,4.62,1.7,3.16,1.35,2.65,,,1.86,3.63
O=C(NCCN1CCC(O)CC1)c1cc2c(o1)C(=O)c1ccccc1C2=O,1.51,2.92,0.294,2.39,,,0.322,1.41,0.149,0.288,0.214,0.492,0.335,1.14,0.323,0.797,0.378,,0.078,0.228
N#C/C(=C\Nc1ccccn1)C(=O)c1ccco1,,> 100,,> 100,,> 100,,> 100,,> 100,,> 100,,> 100,,> 100,,> 100,,> 100
O=C1c2cc(-c3ccccc3)ccc2-c2c1c1ccc([N+](=O)[O-])cc1c(=O)n2CCCBr,33.1,> 50,> 50,> 50,> 36.3,> 50,> 50,> 50,> 37.4,> 50,> 47.4,> 50,> 31.9,> 50,15.1,> 26.2,,> 12.2,> 50,> 50
CSc1n(Cc2ccc3ccccc3c2)c(C)c[n+]1Cc1ccc2ccccc2c1,1.18,2.61,0.563,2.17,1.9,3.77,0.417,1.6,1.34,2.69,1.31,3.18,0.422,1.65,0.342,1.49,0.414,2.36,0.352,1.34
CCn1c2ccc(C(=O)CCCN(C)C)cc2c2cc(C(=O)CCCN(C)C)ccc21,,22.1,,5.88,,6.06,,7.59,,14.5,,8.61,,8.46,,11.4,,32.3,,6.92
Cc1ccc(C(=O)N2CCN(C(=O)c3ccc(C)cc3)c3ccccc32)cc1,,25,,> 100,,> 100,,> 100,,> 43.1,,> 79.8,,24.9,,> 100,,> 100,,32.2
COc1ccc2c(c1)CCc1[nH]nc(-c3cc(OC)c(OC)c(OC)c3)c1-2,< 0.01,< 0.01,< 0.01,17.8,< 0.01,21.7,< 0.01,15.4,< 0.01,3.22,,,< 0.01,11.5,< 0.01,26.1,< 0.01,> 100,< 0.01,< 0.01
CCCCOC(=O)c1ccc(NC(=O)CCl)cc1,10.5,22.6,3.24,12.4,,,2.29,4.73,10.5,23.1,4.82,23.1,1.71,3.1,1.86,5.96,2.98,> 100,,
CC(=O)C1COC(O)C1C (stereo not drawn),,82.3,,55.5,,80.9,,46,,71.9,,43.4,,58.2,,70.4,,> 100,,34.5
Cn1c(/C=C(\C#N)c2cccc(C(F)(F)F)c2)nc2c(N3CCOCC3)nc(Cl)nc21,3.7,14.5,0.726,2.5,0.444,1.57,0.567,2.16,1.83,3.93,1.36,3.18,1.32,2.73,0.159,1.15,0.344,4.03,1.12,2.67
Nc1nc2ccc3[nH]ncc3c2c2c1CCCC2,2.94,14.7,2.33,10.1,1.56,10.5,2.14,18.8,2.49,10.5,1.48,4.59,2.7,13.4,1.36,2.71,3.15,15,2.09,10.1
COc1cc2c(cc1OC)C(CC1(O)CCCCC1)N(S(=O)(=O)c1ccc(C)cc1)CC2 (stereo not drawn),> 10,> 10,> 10,> 10,> 10,> 10,> 10,> 10,> 10,> 10,> 10,> 10,> 10,> 10,> 10,> 10,> 10,> 10,> 10,> 10
COc1cc(F)cc([C@@H](CO)NC(=O)[C@@H](C)N2Cc3ccc(-c4nc(NC5CCOCC5)ncc4Cl)cc3C2=O)c1,3.25,> 100,9.69,98.2,1.54,99.1,13.6,64.8,14.7,85.4,1.3,33.2,8.72,> 100,12.5,54,0.536,> 100,< 0.01,2.37
CC(=O)OC1CC[C@@]2(C)C(CC[C@]3(C)C2CC=C2[C@@H]4CC(C)(C)CCC4(C)CCC23C)[C@@]1(C)C(=O)O (stereo partly drawn),,31.2,,23.1,,30.7,,36.9,,51.3,,50.2,,32,,48.9,,61.9,,48.5
CC1(C)N=C(N)N=C(N)N1c1ccc(CCc2ccc(Cl)cc2S(=O)(=O)F)c(Cl)c1,19.1,> 100,6.62,> 100,44.6,> 100,7.2,69.1,4.82,> 100,17.9,44.3,4.42,20.6,8.44,27.3,6.81,> 100,10.4,24
Clc1cccc(N2CCN(CCN3CCc4c([nH]c5ccccc45)C3c3cccnc3)CC2)c1 (stereo not drawn),,> 100,,> 100,,> 100,,> 100,,> 100,,> 62.4,,> 100,,> 76.4,,> 65.4,,> 84
O=C(O)c1ccc([S-])cc1.[Au+].c1ccc(CN2[CH-]N(Cc3ccccc3)C(c3ccccc3)=C2c2ccccc2)cc1,0.352,1.39,0.308,1.44,0.332,1.28,0.417,1.66,0.242,1.09,,,0.321,1.36,0.298,1.51,0.33,1.67,0.269,0.824
Clc1ccc(C(c2ccc(Cl)cc2)N2CCNCC2)cc1,,> 44.3,,7.15,,5.74,,3.28,,5.74,,,,4.2,,5.78,,3.76,,4.28
COc1ccc2c(c1)c1nc3cc(C)c(C)cc3nc1n2CCN(C)C,1.5,3.48,1.04,2.48,0.375,1.48,,,0.677,1.95,1.01,2.97,0.57,2.19,1.29,4.14,0.431,2.43,0.42,1.88
COc1ccc(C2=Nc3c/c(=C\c4c(O)[nH]c5ccc(Cl)cc45)ccc3=N2)cc1,2.23,5.23,1.56,4,1.83,3.47,2.05,4.7,,,13.8,37,,,,,1,6.29,1.93,3.67
O=C1C(Cl)=C(Nc2cccc(O)c2)C(=O)N1Cc1ccc(Cl)cc1,3.7,19.9,3.45,86.9,,,3.65,44.4,2.68,18.5,1.21,4.91,1.86,26.9,,,1.36,4.52,3.38,20.8
COc1ccc2nc(NCN3C(=O)c4ccccc4C3=O)sc2c1,,> 100,,> 100,,> 100,,> 100,,> 100,,,,> 100,,> 100,,> 100,,> 100
